The results in this text go back to US8658800B2 (priority 2010, dated 2014).

Data set [1] can be described thus: logP by HPLC on reversed-phase columns (C 18), EEC Directive 79/831 Annex V.A8. The format is physicochemical. As to the method: The logP values reported in the table above and in the Preparation Examples were determined in accordance with EEC Directive 79/831 Annex V.A8 by HPLC (High Performance Liquid Chromatography) on reversed-phase columns (C 18), with the following methods:
The LC-MS determination in the acidic range is carried out at pH 2.7 using the mobile phases 0.1% aqueous formic acid and acetonitrile (contains 0.1% formic acid), linear gradient from 10% acetonitrile to 95% acetonitrile
Calibration was carried out using unbranched alkan-2-ones (having from 3 to 16 carbon atoms) with known logP values (the logP values were determined by the retention times using linear interpolation between two successive alkanones).

Data set [2] deals with green peach aphid (Myzus persicae). The experiment in a line: Myzus test (MYZUPE spray treatment). Format: in vivo. The conditions noted are these: 144 h, sprayed Chinese cabbage discs, after 6 days, read-out: activity (kill of aphids). As to the method:
Myzus Test (MYZUPE Spray Treatment)
Solvents: 78 parts by weight of acetone
(§1) • 1.5 parts by weight of dimethylformamide Emulsifier: 0.5 part by weight of alkylaryl polyglycol ether
(§2) To produce a suitable preparation of active compound, 1 part by weight of active compound is mixed with the stated amount of solvents and emulsifier, and the concentrate is diluted with emulsifier-containing water to the desired concentration.
Discs of Chinese cabbage (Brassica pekinensis) infested by all stages of the green peach aphid (Myzus persicae) are sprayed with an active compound preparation of the desired concentration.
After 6 days, the effect in % is determined. 100% means that all of the aphids have been killed; 0% means that none of the aphids have been killed.

In data set [3] the test system is larvae of the mustard beetle (Phaedon cochleariae). The experiment in a line: Phaedon test (PHAECO spray treatment). The format is in vivo. As to conditions: 168 h, read-out: activity (kill of beetle larvae). As to the method:
Phaedon Test ([…] Spray Treatment) Solvents: 78.0 parts by weight of acetone • • 1.5 parts by weight of dimethylformamide Emulsifier: 0.5 part by weight of alkylaryl polyglycol ether To produce a suitable preparation of active compound, 1 part by weight of active compound is mixed with the stated amount of solvents and emulsifier, and the concentrate is diluted with emulsifier-containing water to the desired concentration. Discs of Chinese cabbage (Brassica pekinensis) are sprayed with an active compound preparation of the desired concentration and, after drying, populated with larvae of the mustard beetle (Phaedon cochleariae).

For data set [4], the system named is caterpillars of the armyworm (Spodoptera frugiperda). Put plainly: Spodoptera frugiperda test (SPODFR spray treatment). The format is in vivo. The conditions noted are these: foliar, 168 h, read-out: activity (kill of caterpillars). The protocol:
Spodoptera frugiperda Test (SPODFR Spray Treatment)
Solvents: 78.0 parts by weight of acetone
as §1, §2
Discs of maize leaves (Zea mays) are sprayed with an active compound preparation of the desired concentration and, after drying, populated with caterpillars of the armyworm (Spodoptera frugiperda).
After 7 days, the effect in % is determined. 100% means that all caterpillars have been killed; 0% means that none of the caterpillars have been killed.

The subject of another data set is Lucilia cuprina larvae. Put plainly: Lucilia cuprina test (LUCICU). The format is in vivo. As to conditions: 100 ppm, treated horse meat, after 2 days. As to the method:
Lucilia cuprina Test (LUCICU)
Solvent: dimethyl sulphoxide
To produce a suitable preparation of active compound, 10 mg of active compound are mixed with 0.5 ml of dimethyl sulphoxide and the concentrate is diluted with water to the desired concentration.
Vessels containing horse meat treated with the active compound of the desired concentration are populated with about 20 Lucilia cuprina larvae.
After 2 days, the kill in % is determined 100% means that all of the larvae have been killed; 0% means that none of the larvae have been killed.

[5] abbreviates: HPLC, reversed-phase C 18, acidic range pH 2.7, 0.1% aqueous formic acid/acetonitrile, read-out: log P.
Setting [6] is: 100 g/ha, sprayed Chinese cabbage discs, after 7 days.
The mark [7] stands for this setting: reversed-phase C18 HPLC column, HPLC, reversed-phase C 18, acidic range pH 2.7, 0.1% aqueous formic acid/acetonitrile, read-out: log P.
Setting [8] is: 100 g/ha, sprayed maize leaf discs, after 7 days.

Read-outs that look alike come from different tables or passages of the source.

Regarding `Cc1cc(Br)cc(OC(F)F)c1N`, in data set [1] (setting [5]), the chromatographic logP stood at 2.84.
For `Cc1cc(C#N)cc(OC(F)F)c1N`, the chromatographic logP in data set [1] (setting [5]) amounted to 1.9.
As to `Cc1cccc(C(=O)NS(C)(=O)=O)c1N`, in data set [1] (setting [5]), the chromatographic logP worked out at 1.1.
The compound `Cc1cc(Cl)cc(C(=O)NS(=O)(=O)N(C)C)c1NC(=O)c1cc(Cn2cc(C(F)(F)C(F)(F)F)cn2)nn1-c1ncccc1Cl` [Compound 1] showed a chromatographic logP in data set [1] (pH 2.7) of 3.35.
In the case of `Cc1cc(I)cc(C(=O)O)c1NC(=O)c1cc(Cn2nnc(C(F)(F)C(F)(F)F)n2)nn1-c1ncccc1Br` [Compound 2], the values for the pest or weed control at 100 g/ha in data set [2], in data set [3] (setting [6]) and in data set [4] (setting [8]) were 80%, 100% and 100%, respectively. The chromatographic logP in data set [1] (setting [7]) is 3.69.
Regarding `Cc1cc(F)cc(C(=O)O)c1NC(=O)c1cc(Cn2nnc(C(F)(F)C(F)(F)F)n2)nn1-c1ncccc1Br` [Compound 3], in data set [1] (setting [7]), the chromatographic logP stood at 3.16. Moreover, the pest or weed control at 100 g/ha in data set [4] (setting [8]) worked out at 100%.
Regarding `Cc1cc(I)cc(C(=O)NS(C)(=O)=O)c1NC(=O)c1cc(Cn2nnc(C(F)(F)C(F)(F)F)n2)nn1-c1ncccc1Br` [Compound 4], the chromatographic logP in data set [1] (setting [7]) amounted to 3.39.
For the compound `Cc1cccc(C(=O)NS(C)(=O)=O)c1NC(=O)c1cc(Cn2nnc(C(F)(F)F)n2)nn1-c1ncccc1Cl` [Compound 5], the chromatographic logP in data set [1] (pH 2.7) turned out to be 2.47. For the same compound, the pest or weed control at 100 g/ha in data set [4] (in Zea mays) was 100%.
For the compound `Cc1cc(Br)cc(OC(F)F)c1NC(=O)c1cc(Cn2nnc(C(F)(F)F)n2)nn1-c1ncccc1Cl` [Compound 8], the “efficacy (kill)” value in the data set on Lucilia cuprina larvae is listed as 100%. Further, the pest or weed control at 100 g/ha in data set [3] (setting [6]) and in data set [4] (setting [8]) was 100% throughout. In data set [1] (setting [7]), the chromatographic logP turned out to be 3.77.
`Cc1cc(Cl)cc(OC(F)(F)F)c1NC(=O)c1cc(Cn2nnc(C(F)(F)F)n2)nn1-c1ncccc1Cl` [Compound 10]: in data set [1] (setting [7]), the chromatographic logP was 4. The pest or weed control at 100 g/ha in data set [4] (setting [8]) is 100%.
In the case of `COC(=O)c1cc(I)cc(C)c1NC(=O)c1cc(Cn2nc(C(F)(F)F)cc2C(F)(F)F)nn1-c1ncccc1Cl` [Compound 11], in data set [1] (setting [7]), the chromatographic logP is 4.57.
Turning to `Cc1cc(C#N)cc(C(=O)O)c1NC(=O)c1cc(Cn2nnc(C(F)(C(F)(F)F)C(F)(F)F)n2)nn1-c1ncccc1Cl` [Compound 13], the pest or weed control at 100 g/ha in data set [2] amounted to 80%; in data set [3] (setting [6]), 100%; in data set [4] (setting [8]), 100%. Further, the chromatographic logP in data set [1] (setting [7]) was determined as 3.36.
Take `Cc1cc(C#N)cc(C(=O)O)c1NC(=O)c1cc(Cn2nnc(C(F)(F)F)n2)nn1-c1ncccc1Cl` [Compound 14]: the pest or weed control at 100 g/ha was determined as 80% in data set [2] and 100% in data set [4] (setting [8]). Besides, in data set [1] (setting [7]), the chromatographic logP came to 2.65.
`O=C(O)c1cc(Cl)cc(Cl)c1NC(=O)c1cc(Cn2nc(C(F)(F)C(F)(F)C(F)(F)F)cc2C(F)(F)F)nn1-c1ncccc1Cl` [Compound 15]: the pest or weed control at 100 g/ha in data set [3] (in Brassica rapa) was found to be 83%. Besides, the chromatographic logP in data set [1] (setting [5]) worked out at 4.4.
Take `Cc1cc(C#N)cc(C(=O)O)c1NC(=O)c1cc(Cn2cnc(C(F)(F)F)c2C(F)(F)F)nn1-c1ncccc1Cl` [Compound 16]: the pest or weed control at 100 g/ha in data set [3] (setting [6]) was determined as 100%. For the same compound, the chromatographic logP in data set [1] (setting [7]) amounted to 2.63.
As to `Cc1cc(Cl)cc(C(=O)O)c1NC(=O)c1cc(Cn2nc(C)c(Br)c2C)nn1-c1ncccc1Cl` [Compound 17], the chromatographic logP in data set [1] (setting [7]) came out at 3.16.
For `Cc1cc(C#N)cc(C(=O)O)c1NC(=O)c1cc(Cn2nc(C(F)F)cc2C(F)F)nn1-c1ncccc1Cl` [Compound 18], the chromatographic logP in data set [1] (setting [7]) stood at 2.62.
On to `Cc1nc(C(F)(F)F)nn1Cc1cc(C(=O)Nc2c(Cl)cc(Cl)cc2C(=O)O)n(-c2ncccc2Cl)n1` [Compound 19], for which the pest or weed control at 100 g/ha in data set [2] was determined as 80%. Also, in data set [1] (setting [7]), the chromatographic logP came out at 2.68.
As to `Cc1cc(F)cc(C(=O)O)c1NC(=O)c1cc(Cn2nnc(C(F)(F)F)n2)nn1-c1ncccc1Cl` [Compound 20], the chromatographic logP in data set [1] (setting [7]) turned out to be 2.75.
With `O=C(O)c1cc(Cl)cc(Cl)c1NC(=O)c1cc(Cn2nnc(C(F)(F)F)n2)nn1-c1ncccc1Cl` [Compound 21], the pest or weed control at 100 g/ha in data set [3] (setting [6]) is 100%; in data set [4] (setting [8]) it was 83%. Besides, the chromatographic logP in data set [1] (setting [7]) is 3.04.
As for `Cc1cc(Cl)cc(C(=O)O)c1NC(=O)c1cc(Cn2nnc(C(F)(F)C(F)(F)F)n2)nn1-c1ncccc1Cl` [Compound 22], the pest or weed control at 100 g/ha in data set [3] (setting [6]) stood at 100%. Besides, the chromatographic logP in data set [1] (setting [7]) is 3.44.
As for `O=C(O)c1cc(Cl)cc(Cl)c1NC(=O)c1cc(Cn2nnc(C(F)(F)C(F)(F)F)n2)nn1-c1ncccc1Cl` [Compound 23], the pest or weed control at 100 g/ha in data set [3] (setting [6]) is 100%. In addition, the chromatographic logP in data set [1] (setting [7]) was found to be 3.37.
Take `O=C(O)c1cc(Cl)cc(Cl)c1NC(=O)c1cc(Cn2nnc(C(F)F)n2)nn1-c1ncccc1Cl` [Compound 25]: in data set [1] (setting [7]), the chromatographic logP came out at 2.55.
In the case of `O=C(O)c1cc(Cl)cc(Cl)c1NC(=O)c1cc(Cn2ncc(C(F)(F)F)n2)nn1-c1ncccc1Cl` [Compound 26], the pest or weed control at 100 g/ha in data set [2] was found to be 90%; in data set [3] (setting [6]), 100%; in data set [4] (setting [8]), 100%. In data set [1] (setting [7]), the chromatographic logP turned out to be 3.03.
Turning to `Cc1cc(I)cc(C(=O)O)c1NC(=O)c1cc(Cn2ncc(C(F)(F)F)n2)nn1-c1ncccc1Cl` [Compound 27], the chromatographic logP in data set [1] (setting [7]) is 3.26. The pest or weed control at 100 g/ha in data set [4] (setting [8]) was found to be 83%.
Take `O=C(O)c1cc(Cl)cc(Cl)c1NC(=O)c1cc(Cn2cc(C(F)(F)F)nn2)nn1-c1ncccc1Cl` [Compound 28]: the pest or weed control at 100 g/ha in data set [2] and in data set [3] (setting [6]) was 100% in each case. Further, the chromatographic logP in data set [1] (setting [7]) came to 2.69.
On to `COC(=O)c1cc(F)cc(C)c1NC(=O)c1cc(Cn2nnc(C(F)(F)F)n2)nn1-c1ncccc1Cl` [Compound 29], for which the pest or weed control at 100 g/ha in data set [3] (setting [6]) was determined as 83%; in data set [4] (setting [8]) it was 100%. For the same compound, the chromatographic logP in data set [1] (setting [7]) was found to be 3.33.
Regarding `Cc1cc(Cl)cc(C(=O)O)c1NC(=O)c1cc(Cn2nnc(C(F)(F)F)n2)nn1-c1ncccc1Cl` [Compound 30], the pest or weed control at 100 g/ha in data set [2] worked out at 80%; in data set [4] (setting [8]), 83%. Besides, the chromatographic logP in data set [1] (setting [7]) came to 3.05.
As to `Cc1cc(C#N)cc(C(=S)NC(C)(C)C)c1NC(=O)c1cc(Cn2nnc(C(F)(F)F)n2)nn1-c1ncccc1Cl` [Compound 31], the pest or weed control at 100 g/ha in data set [2] came out at 90%; in data set [3] (setting [6]) it was 100%; in data set [4] (setting [8]), 83%. Moreover, in data set [1] (setting [7]), the chromatographic logP was determined as 3.75.
On to `Cc1cccc(S(N)(=O)=O)c1NC(=O)c1cc(Cn2nnc(C(F)(F)F)n2)nn1-c1ncccc1Cl` [Compound 32], for which the chromatographic logP in data set [1] (setting [7]) stood at 2.56.
With `CNS(=O)(=O)c1cccc(C)c1NC(=O)c1cc(Cn2nnc(C(F)(F)F)n2)nn1-c1ncccc1Cl` [Compound 33], in data set [1] (setting [7]), the chromatographic logP is 2.9.
In the case of `CCC(=O)c1cccc(C)c1NC(=O)c1cc(Cn2nnc(C(F)(F)F)n2)nn1-c1ncccc1Cl` [Compound 34], the chromatographic logP in data set [1] (setting [7]) was determined as 3.35.
For `Cc1cccc(C(=O)C2CC2)c1NC(=O)c1cc(Cn2nnc(C(F)(F)F)n2)nn1-c1ncccc1Cl` [Compound 35], in data set [1] (setting [7]), the chromatographic logP was determined as 3.33. In data set [4] (setting [8]), the pest or weed control at 100 g/ha stood at 100%.
`CNC(=S)c1cc(I)cc(C)c1NC(=O)c1cc(Cn2nnc(C(F)(F)F)n2)nn1-c1ncccc1Cl` [Compound 36]: the pest or weed control at 100 g/ha in data set [2], in data set [3] (setting [6]) and in data set [4] (setting [8]) was 100% each time. For the same compound, the chromatographic logP in data set [1] (setting [7]) was 3.73.
